These results are taken from patent US7378265B2 (priority 1998, dated 2008).

This assay has as its system recombinant retroviruses expressing the LacZ marker gene. The format is cell-based, retrovirus.

Structures are written as SMILES.

Consider `OC[C@H]1O[C@@H]2O[C@H]3[C@H](O)[C@@H](O)[C@@H](O[C@H]4[C@H](O)[C@@H](O)[C@@H](O[C@H]5[C@H](O)[C@@H](O)[C@@H](O[C@H]6[C@H](O)[C@@H](O)[C@@H](O[C@H]7[C@H](O)[C@@H](O)[C@@H](O[C@H]8[C@H](O)[C@@H](O)[C@@H](O[C@H]1[C@H](O)[C@H]2O)O[C@@H]8CO)O[C@@H]7CO)O[C@@H]6CO)O[C@@H]5CO)O[C@@H]4CO)O[C@@H]3CO` [β-cyclodextrin], for which the “enhancement of the retroviral inactivation, additional factor” value was found to be 10.
